Results published in patent US20020137929A1, “1 - (3-heterocyclylphenyl) isothiourea, -isourea, -guanidine and -amidine herbicidal agents” (Intellectual Property Department, BASF Aktiengesellschaft, priority 1998, published 2002).

Experiments:
AMBEL (Ragweed, Common) = assay: Postemergence herbicidal evaluation; assay type: in vivo, Ambrosia artemisifolia; conditions: postemergence
Outline: (§1)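 Scores (0–9) reflect plant stand, vigor, malformation, size, chlorosis and general appearance relative to control, read 4 to 5 weeks after treatment and averaged where tests were repeated. Application: about 0.0156–0.500 kg/ha sprayed at 40 psi onto two-week seedlings.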

ECHCG (Barnyardgrass) = assay: Postemergence herbicidal evaluation; assay type: in vivo, Echinochloa crus-galli; conditions: postemergence
Outline: as §1

[1] = system: CHEAL (Lambsquarters, Common); assay: Postemergence herbicidal evaluation; assay type: in vivo, Chenopodium album; conditions: postemergence
Outline: as §1

ORYSAT (Rice, Tebonnet) = assay: Postemergence herbicidal evaluation; assay type: in vivo, Oryza sativa, (L.) Tebonnet; conditions: postemergence
Outline: as §1

CYPIR (Rice Flatsedge) = assay: Preemergence weed control under flooded paddy conditions; assay type: in vivo, Cyperus iria; conditions: rated 3-4 weeks after treatment
Outline: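 Flooded-pot preemergence screen with silt loam and seeds in the upper 0.5 cm. Dose about 0.0313 to 0.500 kg/ha, delivered into flood water; visual 0-9 score after 3 to 4 weeks.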

ZEAMX (Corn, Field) = assay: Preemergence herbicidal evaluation; assay type: in vivo, Zea mays; conditions: rated 4-5 weeks after treatment
Outline: (§2)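 Seeds were mixed with potting soil and planted on about one inch of soil, then sprayed with test compound in aqueous acetone at about 0.0156 to 0.500 kg per hectare. Plants grew under standard greenhouse care and were visually rated 0-9 against untreated controls 4-5 weeks post-treatment.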

CASOB (Sicklepod) [2] = assay: Postemergence herbicidal evaluation; assay type: in vivo, Cassia obtusifolia; conditions: postemergence
Outline: as §1

CYPSE (Flatsedge) = assay: Preemergence weed control under flooded paddy conditions; assay type: in vivo, Cyperus serotinus; conditions: rated 3-4 weeks after treatment
Outline: (§3)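 Silt loam, seeds in top 0.5 cm; flood held 1.5-3 cm; test cpd as acetone/water 50/50 into flood water, ~0.0313-0.500 kg/ha a.i.; greenhouse 3-4 wk; visual 0-9 score vs control.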

GALAP (Galium) [3] = assay: Postemergence herbicidal evaluation; assay type: in vivo, Galium aparine; conditions: postemergence
Outline: as §1

[4] = system: GLXMAW (Soybean, Williams); assay: Postemergence herbicidal evaluation; assay type: in vivo, Glycine max, (L.) Merr. cv Williams; conditions: postemergence
Outline: as §1

CASOB (Sicklepod) [5] = assay: Preemergence herbicidal evaluation; assay type: in vivo, Cassia obtusifolia; conditions: rated 4-5 weeks after treatment
Outline: as §2

GALAP (Galium) [6] = assay: Preemergence herbicidal evaluation; assay type: in vivo, Galium aparine; conditions: rated 4-5 weeks after treatment
Outline: as §2

[7] = system: SAGPY (Arrowhead (Pygmaea)); assay: Preemergence weed control under flooded paddy conditions; assay type: in vivo, Sagittaria pygmaea; conditions: rated 3-4 weeks after treatment
Outline: as §3

SETVI (Foxtail, Green) = assay: Postemergence herbicidal evaluation; assay type: in vivo, Setaria viridis; conditions: postemergence
Outline: as §1

Compound: CCN1C(=O)CSC1=Nc1cc(-n2c(=O)cc(C(F)(F)F)n(C)c2=O)c(F)cc1Cl [Compound 159, 3-{4-Chloro-5-[(3-ethyl-4-oxo-2-thiazolidinyl-idene)amino]-2-fluorophenyl}-1-methyl-6-(trifluoromethyl)-2,4(1H,3H)-pyrimidinedione]
- Herbicidal rating AMBEL (AMBEL (Ragweed, Common); rate 0.0156 kg/ha): 4.0
- Herbicidal rating AMBEL (AMBEL (Ragweed, Common); rate 0.0313 kg/ha): 7.0
- Herbicidal rating AMBEL (AMBEL (Ragweed, Common); rate 0.0625 kg/ha): 7.0
- Herbicidal rating ECHCG (ECHCG (Barnyardgrass); rate 0.0156 kg/ha): 2.0
- Herbicidal rating ECHCG (ECHCG (Barnyardgrass); rate 0.0313 kg/ha): 3.0
- Herbicidal rating ECHCG (ECHCG (Barnyardgrass); rate 0.0625 kg/ha): 3.0
- Herbicidal rating CHEAL ([1]; rate 0.0156 kg/ha): 3.0
- Herbicidal rating CHEAL ([1]; rate 0.0313 kg/ha): 4.0
- Herbicidal rating CHEAL ([1]; rate 0.0625 kg/ha): 5.0
- Herbicidal rating ORYSAT (ORYSAT (Rice, Tebonnet); rate 0.0156 kg/ha): 1.5
- Herbicidal rating ORYSAT (ORYSAT (Rice, Tebonnet); rate 0.0313 kg/ha): 2.0
- Herbicidal rating ORYSAT (ORYSAT (Rice, Tebonnet); rate 0.0625 kg/ha): 2.0
- herbicidal effect rating, CYPIR (CYPIR (Rice Flatsedge); 0.0313 kg/ha): 0.0
- herbicidal effect rating, CYPIR (CYPIR (Rice Flatsedge); 0.0625 kg/ha): 0.0
- herbicidal effect rating, CYPIR (CYPIR (Rice Flatsedge); 0.1250 kg/ha): 3.0
- herbicidal effect rating, CYPIR (CYPIR (Rice Flatsedge); 0.2500 kg/ha): 4.0
- Preemergence herbicidal rating ZEAMX (ZEAMX (Corn, Field); 0.0156 kg/ha): 0.0
- Preemergence herbicidal rating ZEAMX (ZEAMX (Corn, Field); 0.0313 kg/ha): 0.0
- Preemergence herbicidal rating ZEAMX (ZEAMX (Corn, Field); 0.0625 kg/ha): 1.0
- Preemergence herbicidal rating ZEAMX (ZEAMX (Corn, Field); 0.1250 kg/ha): 2.0
- Preemergence herbicidal rating ZEAMX (ZEAMX (Corn, Field); 0.2500 kg/ha): 7.0
- Herbicidal rating CASOB (CASOB (Sicklepod) [2]; rate 0.0156 kg/ha): 0.0
- Herbicidal rating CASOB (CASOB (Sicklepod) [2]; rate 0.0313 kg/ha): 1.0
- Herbicidal rating CASOB (CASOB (Sicklepod) [2]; rate 0.0625 kg/ha): 7.0
- herbicidal effect rating, CYPSE (CYPSE (Flatsedge); 0.0625 kg/ha): 0.0
- herbicidal effect rating, CYPSE (CYPSE (Flatsedge); 0.1250 kg/ha): 0.0
- Herbicidal rating GALAP (GALAP (Galium) [3]; rate 0.0156 kg/ha): 0.0
- Herbicidal rating GALAP (GALAP (Galium) [3]; rate 0.0313 kg/ha): 1.0
- Herbicidal rating GALAP (GALAP (Galium) [3]; rate 0.0625 kg/ha): 4.0
- Herbicidal rating GLXMAW ([4]; rate 0.0156 kg/ha): 5.0
- Herbicidal rating GLXMAW ([4]; rate 0.0313 kg/ha): 5.5
- Herbicidal rating GLXMAW ([4]; rate 0.0625 kg/ha): 7.0
- Preemergence herbicidal rating CASOB (CASOB (Sicklepod) [5]; 0.0156 kg/ha): 0.0
- Preemergence herbicidal rating CASOB (CASOB (Sicklepod) [5]; 0.0313 kg/ha): 1.0
- Preemergence herbicidal rating CASOB (CASOB (Sicklepod) [5]; 0.0625 kg/ha): 3.0
- Preemergence herbicidal rating CASOB (CASOB (Sicklepod) [5]; 0.1250 kg/ha): 3.0
- Preemergence herbicidal rating CASOB (CASOB (Sicklepod) [5]; 0.2500 kg/ha): 7.0
- Preemergence herbicidal rating GALAP (GALAP (Galium) [6]; 0.0156 kg/ha): 0.0
- Preemergence herbicidal rating GALAP (GALAP (Galium) [6]; 0.0313 kg/ha): 0.0
- Preemergence herbicidal rating GALAP (GALAP (Galium) [6]; 0.0625 kg/ha): 1.0
- Preemergence herbicidal rating GALAP (GALAP (Galium) [6]; 0.1250 kg/ha): 5.0
- Preemergence herbicidal rating GALAP (GALAP (Galium) [6]; 0.2500 kg/ha): 5.0
- herbicidal effect rating, SAGPY ([7]; 0.0313 kg/ha): 0.0
- herbicidal effect rating, SAGPY ([7]; 0.0625 kg/ha): 3.0
- herbicidal effect rating, SAGPY ([7]; 0.1250 kg/ha): 3.0
- herbicidal effect rating, SAGPY ([7]; 0.2500 kg/ha): 6.0
- Herbicidal rating SETVI (SETVI (Foxtail, Green); rate 0.0156 kg/ha): 1.0
- Herbicidal rating SETVI (SETVI (Foxtail, Green); rate 0.0313 kg/ha): 2.0
- Herbicidal rating SETVI (SETVI (Foxtail, Green); rate 0.0625 kg/ha): 7.0
